In patent US10974081B2, “Treatment and prevention of sleep disorders” (Purdue Pharma L.P., priority 2016, dated 2021):
Values joined by “and” are separate entries in the source; they are usually repeats but may differ in a detail not shown here. Equal entries are not always repeated.

Key:
[1] = In vivo bioavailability after oral dosing; details: male, Sprague-Dawley [Crl:CD(SD)], rat, plasma; 1 mg/kg oral, non-fasted; mean of multiple determinations
rat plasma = test: Rat protein binding, equilibrium dialysis of rat plasma; format: in vitro ADME; details: 24 hours dialysis at 37° C.
Experimental: The extent of in vitro binding of Compound (1F), […], or W-212393 to rat plasma was determined as an assessment of the protein binding of each compound, i.e., compound unavailable for modulating receptor activity. Plasma from rats containing a tested compound in one chamber of a dialysis cell was dialyzed with PBS in the other chamber; thereafter, the supernatant from each chamber was analyzed for the concentration of the tested compound present. A cell suitable for equilibrium dialysis was used in the determinations. The dialysis membrane described in Example 10 (with molecular mass cutoff of 12,000-14,000 Da) separated the dialysis cell into two chambers. The membrane was soaked with purified water and PBS before being placed into the dialysis cell. 4 μL of an iv formulation of each tested compound was added to 996 μL of rat plasma, the latter obtained using syringe containing heparin and EDTA by the procedure described in Example 10, to provide a plasma sample with a tested compound concentration of 2 μg/mL. 450 μL of the plasma sample was applied to one chamber (plasma chamber) of the dialysis cell. A 450 μL aliquot of PBS was applied to the other chamber (PBS chamber) of the dialysis cell. The dialysis study was conducted in duplicate for each tested compound. After 24 hours of equilibrium dialysis at 37° C., 30 μL of liquid from the plasma chamber of the dialysis cell was collected and to this was added 270 μL of fresh PBS (this combination was designated Sample “1”). Then, 270 μL of liquid from the PBS chamber of the dialysis cell was collected and to this was added 30 μL of control rat plasma (i.e., rat plasma never exposed to any test compound, this combination was designated Sample “2”). Thereafter, each sample was mixed well and stored in a freezer until the next analysis step. After the protein precipitated in the freezer, each supernatant thusly obtained was analyzed by LC-MS-MS for unbound test compound. […] Thereafter, the percentage of rat protein-bound (“RPB”) tested compound was calculated as follows: […]

rats = details: by suppression of rhythmic firing of SCN neurons; cited from earlier work
[2] = tested on: subjects with insomnia disorder; test: Phase 1 crossover polysomnography (PSG) study in subjects with insomnia disorder; format: in vivo, human
[3] = In vivo renal clearance in humans; set-up: species or system human; details: for CL renal: male, human, urine
Experimental: Four healthy male subjects were administered each dose. Table 25 below provides the results in the form of the mean renal clearance, mean total amount excreted unchanged ad Compound (1D), and mean percentage dose excreted unchanged.

[4] = In vivo clearance of radiolabeled Compound (1D), rats; details: within 48 hours of oral dosing
[5] = Change from Baseline, 10 mg oral
[6] = Compound (1D) versus placebo, 10 mg oral
[7] = Treatment Period 1 Night 1, 10 mg oral
[8] = Treatment Period 1 Night 2, 10 mg oral
[9] = Treatment Period 2 Night 1, 10 mg oral
[10] = Treatment Period 2 Night 2, 10 mg oral
[11] = Treatment Period Mean, 10 mg oral

Q: For `CNC(=O)Cn1c(=O)n(C2CCN([C@@H]3Cc4cccc5cccc3c45)CC2)c2ccccc21` [Compound W-212393], which bioavailability [1] is on record?
A: 2.1%

Q: What about the “stability in rat plasma during the determination” value (rat plasma) of the same compound?
A: unstable in plasma

Q: And the “effect on circadian body temperature rhythm” value (rats)?
A: induced a phase advance

Q: What does the source list for `O=C(O)c1nc2ccccc2n([C@H]2C[C@H]3CCC[C@@H](C2)N3C2CC3CCCC(C3)C2)c1=O` (some centres unmarked) [Compound (1D)]?
A: Latency to Persistent Sleep (LPS) LSM (STDE) [2, 5]: −32.33 (4.580) Minutes; Latency to Persistent Sleep (LPS) Maximum [2, 5]: 8.75 min; Latency to Persistent Sleep (LPS) Mean (SD) [2, 5]: −29.918 (23.3435) Minutes; Latency to Persistent Sleep (LPS) Median [2, 5]: -27.250 min; Latency to Persistent Sleep (LPS) Minimum [2, 5]: -87.75 min; Total Sleep Time (TST) LSM (STDE) [2, 5]: 69.44 (12.870) Minutes; Total Sleep Time (TST) Maximum [2, 5]: 198.00 min; Total Sleep Time (TST) Mean (SD) [2, 5]: 69.955 (49.2950) Minutes; Total Sleep Time (TST) Median [2, 5]: 73.750 min; Total Sleep Time (TST) Minimum [2, 5]: -59.80 min; Wake After Sleep Onset (WASO) LSM (STDE) [2, 5]: −50.04 (5.990) Minutes; Wake After Sleep Onset (WASO) Maximum [2, 5]: 29.50 min; Wake After Sleep Onset (WASO) Mean (SD) [2, 5]: −50.545 (42.1544) Minutes; Wake After Sleep Onset (WASO) Median [2, 5]: -47.250 min; Wake After Sleep Onset (WASO) Minimum [2, 5]: -185.50 min; Latency to Persistent Sleep (LPS) Drug Effect Difference (LSM (STDE)) [2, 6]: −17.44 (6.292) Minutes; Total Sleep Time (TST) Drug Effect Difference (LSM (STDE)) [2, 6]: 56.69 (17.665) Minutes; Wake After Sleep Onset (WASO) Drug Effect Difference (LSM (STDE)) [2, 6]: −38.46 (8.222) Minutes; Latency to Persistent Sleep LSM Change from Baseline (STDE) ([2]; Table 4 summary, 10 mg oral): −32.3 (4.6) min.; Latency to Persistent Sleep Treatment Period Mean (SD) ([2]; Table 4 summary, 10 mg oral): 18.8 (15.6)) min.; Latency to Persistent Sleep LSM Effect Difference (STDE) ([2]; Table 4 summary, versus placebo, 10 mg oral): −17.4 (6.3) min.; Wake After Sleep Onset LSM Change from Baseline (STDE) ([2]; Table 6 summary, 10 mg oral): −50.0 (6.0) min.; Wake After Sleep Onset Treatment Period Mean (SD) ([2]; Table 6 summary, 10 mg oral): 26.1 (16.2) min.; Wake After Sleep Onset LSM Effect Difference (STDE) ([2]; Table 6 summary, versus placebo, 10 mg oral): −38.5 (8.2) min.; Total Sleep Time LSM Change from Baseline (STDE) ([2]; Table 8 summary, 10 mg oral): 69.4 (12.9) min.; Total Sleep Time Treatment Period Mean (SD) ([2]; Table 8 summary, 10 mg oral): 432.0 (35.1) min.; Total Sleep Time LSM Effect Difference (STDE) ([2]; Table 8 summary, versus placebo, 10 mg oral): 56.7 min. and 56.7 (17.7) min.; Latency to Persistent Sleep (LPS) Maximum [2, 7]: 58.0 min; Latency to Persistent Sleep (LPS) Mean (SD) [2, 7]: 25.68 (15.691) Minutes; Latency to Persistent Sleep (LPS) Median [2, 7]: 24.50 min; Latency to Persistent Sleep (LPS) Minimum [2, 7]: 6.0 min; Total Sleep Time (TST) Maximum [2, 7]: 469.0 min; Total Sleep Time (TST) Mean (SD) [2, 7]: 424.00 (32.530) Minutes; Total Sleep Time (TST) Median [2, 7]: 419.50 min; Total Sleep Time (TST) Minimum [2, 7]: 358.5 min; Wake After Sleep Onset (WASO) Maximum [2, 7]: 111.5 min; Wake After Sleep Onset (WASO) Mean (SD) [2, 7]: 35.95 (29.815) Minutes; Wake After Sleep Onset (WASO) Median [2, 7]: 29.50 min; Wake After Sleep Onset (WASO) Minimum [2, 7]: 7.5 min; Latency to Persistent Sleep (LPS) Maximum [2, 8]: 105.0 min; Latency to Persistent Sleep (LPS) Mean (SD) [2, 8]: 20.73 (29.755) Minutes; Latency to Persistent Sleep (LPS) Median [2, 8]: 15.00 min; Latency to Persistent Sleep (LPS) Minimum [2, 8]: 0.0 min; Total Sleep Time (TST) Maximum [2, 8]: 459.0 min; Total Sleep Time (TST) Mean (SD) [2, 8]: 439.82 (19.572) Minutes; Total Sleep Time (TST) Median [2, 8]: 443.00 min; Total Sleep Time (TST) Minimum [2, 8]: 387.5 min; Wake After Sleep Onset (WASO) Maximum [2, 8]: 52.0 min; Wake After Sleep Onset (WASO) Mean (SD) [2, 8]: 25.68 (12.515) Minutes; Wake After Sleep Onset (WASO) Median [2, 8]: 25.50 min; Wake After Sleep Onset (WASO) Minimum [2, 8]: 4.0 min; Latency to Persistent Sleep (LPS) Maximum [2, 9]: 46.0 min; Latency to Persistent Sleep (LPS) Mean (SD) [2, 9]: 12.75 (14.425) Minutes; Latency to Persistent Sleep (LPS) Median [2, 9]: 9.00 min; Latency to Persistent Sleep (LPS) Minimum [2, 9]: 0.0 min; Total Sleep Time (TST) Maximum [2, 9]: 458.5 min; Total Sleep Time (TST) Mean (SD) [2, 9]: 416.88 (101.558) Minutes; Total Sleep Time (TST) Median [2, 9]: 453.00 min; Total Sleep Time (TST) Minimum [2, 9]: 166.0 min; Wake After Sleep Onset (WASO) Maximum [2, 9]: 22.5 min; Wake After Sleep Onset (WASO) Mean (SD) [2, 9]: 15.63 (4.299) Minutes; Wake After Sleep Onset (WASO) Median [2, 9]: 15.75 min; Wake After Sleep Onset (WASO) Minimum [2, 9]: 9.5 min; Latency to Persistent Sleep (LPS) Maximum [2, 10]: 29.5 min; Latency to Persistent Sleep (LPS) Mean (SD) [2, 10]: 12.50 (9.350) Minutes; Latency to Persistent Sleep (LPS) Median [2, 10]: 11.50 min; Latency to Persistent Sleep (LPS) Minimum [2, 10]: 0.5 min; Total Sleep Time (TST) Maximum [2, 10]: 459.5 min; Total Sleep Time (TST) Mean (SD) [2, 10]: 447.50 (8.594) Minutes; Total Sleep Time (TST) Median [2, 10]: 450.25 min; Total Sleep Time (TST) Minimum [2, 10]: 436.0 min; Wake After Sleep Onset (WASO) Maximum [2, 10]: 38.5 min; Wake After Sleep Onset (WASO) Mean (SD) [2, 10]: 23.44 (8.946) Minutes; Wake After Sleep Onset (WASO) Median [2, 10]: 22.75 min; Wake After Sleep Onset (WASO) Minimum [2, 10]: 12.5 min; Latency to Persistent Sleep (LPS) LSM (STDE) [2, 11]: 18.14 (4.579) Minutes; Latency to Persistent Sleep (LPS) Maximum [2, 11]: 70.25 min; Latency to Persistent Sleep (LPS) Mean (SD) [2, 11]: 18.750 (15.6310) Minutes; Latency to Persistent Sleep (LPS) Median [2, 11]: 15.000 min; Latency to Persistent Sleep (LPS) Minimum [2, 11]: 2.00 min; Total Sleep Time (TST) LSM (STDE) [2, 11]: 431.09 (12.869) Minutes; Total Sleep Time (TST) Maximum [2, 11]: 464.00 min; Total Sleep Time (TST) Mean (SD) [2, 11]: 432.026 (35.1088) Minutes; Total Sleep Time (TST) Median [2, 11]: 443.500 min; Total Sleep Time (TST) Minimum [2, 11]: 309.00 min; Wake After Sleep Onset (WASO) LSM (STDE) [2, 11]: 25.28 (5.990) Minutes; Wake After Sleep Onset (WASO) Maximum [2, 11]: 51.75 min; Wake After Sleep Onset (WASO) Mean (SD) [2, 11]: 26.066 (16.2181) Minutes; Wake After Sleep Onset (WASO) Median [2, 11]: 22.250 min; Wake After Sleep Onset (WASO) Minimum [2, 11]: 11.00 min; Latency to Persistent Sleep LSM decrease effect ([2]; treatment group versus placebo): 17.4 min; Wake After Sleep Onset LSM decrease effect ([2]; treatment group versus placebo): 38.5 min; absorption from the gastrointestinal tract ([3]; 3 mg oral dose, aqueous suspension): essentially completely absorbed; Mean % Dose Excreted Unchanged ([3]; 3.0 mg single oral dose): 89%; Mean Total Amount Excreted Unchanged ([3]; 3.0 mg single oral dose): 2.66 mg; Mean % Dose Excreted Unchanged ([3]; 10 mg single oral dose): 70%; Mean Total Amount Excreted Unchanged ([3]; 10 mg single oral dose): 6.95 mg; Mean % Dose Excreted Unchanged ([3]; 30 mg single oral dose): 28%; Mean Total Amount Excreted Unchanged ([3]; 30 mg single oral dose): 8.37 mg; renal elimination mechanism ([3]; in addition to glomerular filtration): active renal tubular secretion; CL renal ([3]; 3.0 mg single oral dose): 275 mL/min; CL renal ([3]; 10 mg single oral dose): 266 mL/min; CL renal ([3]; 30 mg single oral dose): 270 mL/min; excretion in human urine ([3]; single oral doses 3, 10, 30 mg): excreted largely unchanged; Average % Elimination, Fecal ([4]; Rat (female)): 27.9%; Average % Elimination, Fecal + Urinary ([4]; Rat (female)): 94.7%; Average % Elimination, Urinary ([4]; Rat (female)): 66.8%; Average % Elimination, Fecal ([4]; Rat (male)): 41.6%; Average % Elimination, Fecal + Urinary ([4]; Rat (male)): 96.0%; Average % Elimination, Urinary ([4]; Rat (male)): 54.4%
